Measurements reported in US10208040B2, “Fused imidazo-piperidine JAK inhibitors” (THERAVANCE BIOPHARMA R&D IP, LLC, priority 2017, dated 2019).

What was measured:
[1] = molecular target: JAK1 (Homo sapiens (Human), UniProt P23458); test: Biochemical JAK kinase assay (LanthaScreen), JAK1
Experimental: (§1) A panel of four LanthaScreen JAK biochemical assays (JAK1, 2, 3 and Tyk2) were carried in a common kinase reaction buffer (50 mM HEPES, pH 7.5, 0.01% Brij-35, 10 mM MgCl2, and 1 mM EGTA). Recombinant GST-tagged JAK enzymes and a GFP-tagged STAT1 peptide substrate were obtained from Life Technologies.
(§2) Serially diluted compounds were pre-incubated with each of the four JAK enzymes and the substrate in white 384-well microplates (Corning) at ambient temperature for 1 h. ATP was subsequently added to initiate the kinase reactions in 10 μL total volume, with 1% DMSO. […] The plates were allowed to incubate at ambient temperature for 1 h before being read on the EnVision reader (Perkin Elmer).
(§3) For dose-response analysis, percent inhibition data were plotted vs. compound concentrations, and IC50 values were determined from a 4-parameter robust fit model with the Prism software (GraphPad Software). Results were expressed as pIC50 (negative logarithm of IC50) and subsequently converted to pKi (negative logarithm of dissociation constant, Ki) using the Cheng-Prusoff equation.

[2] = molecular target: JAK2 (Homo sapiens (Human), UniProt O60674); test: Biochemical JAK kinase assay (LanthaScreen), JAK2
Experimental: as §1, §2, §3

[3] = molecular target: JAK3 (Homo sapiens (Human), UniProt P52333); test: Biochemical JAK kinase assay (LanthaScreen), JAK3
Experimental: as §1, §2, §3

[4] = molecular target: Tyk2 (Homo sapiens (Human), UniProt P29597); test: Biochemical JAK kinase assay (LanthaScreen), Tyk2
Experimental: as §1, §2, §3

[5] = tested on: IL-13 induced STAT6 phosphorylation in BEAS-2B human lung epithelial cells; test: Cellular JAKI potency assay (AlphaScreen, BEAS-2B); type: cell-based; conditions: BEAS-2B cells
Experimental: The AlphaScreen JAKI cellular potency assay was carried out by measuring interleukin-13 (IL-13, R&D Systems) induced STAT6 phosphorylation in BEAS-2B human lung epithelial cells (ATCC). The anti-STAT6 antibody (Cell Signaling Technologies) was conjugated to AlphaScreen acceptor beads (Perkin Elmer), while the anti-pSTAT6 (pTyr641) antibody (Cell Signaling Technologies) was biotinylated using EZ-Link Sulfo-NHS-Biotin (Thermo Scientific).
BEAS-2B cells were grown at 37° C. in a 5% CO2 humidified incubator in 50% DMEM/50% F-12 medium (Life Technologies) supplemented with 10% FBS (Hyclone), 100 U/mL penicillin, 100 μg/mL streptomycin (Life Technologies), and 2 mM GlutaMAX (Life Technologies). On day 1 of the assay, cells were seeded at a 7,500 cells/well density in white poly-D-lysine-coated 384-well plates (Corning) with 25 μL medium, and were allowed to adhere overnight in the incubator. On day 2 of the assay, the medium was removed and replaced with 12 μL of assay buffer (Hank's Balanced Salt Solution/HBSS, 25 mM HEPES, and 1 mg/ml bovine serum albumin/BSA) containing dose-responses of test compounds. Compounds were serially diluted in DMSO and then diluted another 1000-fold in media to bring the final DMSO concentration to 0.1%. Cells were incubated with test compounds at 37° C. for 1 h, and followed by the addition of 12 μl of pre-warmed IL-13 (80 ng/mL in assay buffer) for stimulation. After incubating at 37° C. for 30 min, the assay buffer (containing compound and IL-13) was removed, and 10 μL of cell lysis buffer (25 mM HEPES, 0.1% SDS, 1% NP-40, 5 mM MgCl2, 1.3 mM EDTA, 1 mM EGTA, and supplement with Complete Ultra mini protease inhibitors and PhosSTOP from Roche Diagnostics). The plates were shaken at ambient temperature for 30 min before the addition of detection reagents. A mixture of biotin-anti-pSTAT6 and anti-STAT6 conjugated acceptor beads was added first and incubated at ambient temperature for 2 h, followed by the addition of streptavidin conjugated donor beads (Perkin Elmer). After a minimum of 2 h incubation, the assay plates were read on the EnVision plate reader. AlphaScreen luminescence signals were recorded and utilized to calculate the percent inhibition values based on DMSO and background controls.
For dose-response analysis, percent inhibition data were plotted vs. compound concentrations, and IC50 values were determined from a 4-parameter robust fit model with the Prism software. Results may also be expressed as the negative logarithm of the IC50 value, pIC50.
Test compounds having a lower IC50 value or higher pIC50 value in this assay show greater inhibition of IL-13 induced STAT6 phosphorylation.

[6] = tested on: IL-13 induced pSTAT6 in lung tissue; test: Murine model of IL-13 induced pSTAT6 induction in lung tissue; type: in vivo; conditions: mouse lung, oral aspiration 1 mg/mL 50 μL, IL-13 challenge 4 h post dose, pSTAT6 at 5 hours
Experimental: IL-13 is an important cytokine underlying the pathophysiology of asthma (Kudlacz et al. Eur. J. Pharmacol, 2008, 582, 154-161). IL-13 binds to cell surface receptors activating members of the Janus family of kinases (JAK) which then phosphorylate STAT6 and subsequently activates further transcription pathways. In the described model, a dose of IL-13 was delivered locally into the lungs of mice to induce the phosphorylation of STAT6 (pSTAT6) which is then measured as the endpoint.
Adult balb/c mice from Harlan were used in the assay. On the day of study, animals were lightly anesthetized with isoflurane and administered either vehicle or test compound (1 mg/mL, 50 μL total volume over several breaths) via oral aspiration. Animals were placed in lateral recumbency post dose and monitored for full recovery from anesthesia before being returned to their home cage. Four hours later, animals were once again briefly anesthetized and challenged with either vehicle or IL-13 (0.03 μg total dose delivered, 50 μL total volume) via oral aspiration before being monitored for recovery from anesthesia and returned to their home cage. One hour after vehicle or IL-13 administration, lungs were collected for both pSTAT6 detection using an anti-pSTAT6 ELISA (rabbit mAb capture/coating antibody; mouse mAb detection/report antibody: anti-pSTAT6-pY641; secondary antibody: anti-mouse IgG-HRP) and analyzed for total drug concentration as described above in Assay 3.
Selected compounds of the invention were tested in the assay. Activity in the model is evidenced by a decrease in the level of pSTAT6 present in the lungs of treated animals at 5 hours compared to the vehicle treated, IL-13 challenged control animals. The difference between the control animals which were vehicle-treated, IL-13 challenged and the control animals which were vehicle-treated, vehicle challenged dictated the 0% and 100% inhibitory effect, respectively, in any given experiment.

[7] = Pharmacokinetics in plasma and lung in mouse; type: in vivo; conditions: oral aspiration, ratio of lung exposure to plasma exposure
[8] = tested on: alternaria-induced BALF eosinophils; test: Murine model of Alternaria alternata-induced eosinophilic inflammation of the lung; type: in vivo; conditions: mouse, oropharyngeal aspiration, 48 h after alternaria challenge, maximum statistically significant percent inhibition
Experimental: Airway eosinophilia is a hallmark of human asthma. Alternaria alternata is a fungal aeroallergen that can exacerbate asthma in humans and induces eosinophilic inflammation in the lungs of mice (Havaux et al. Clin Exp Immunol. 2005 February; 139(2):179-88).
Seven- to nine-week old male C57 mice from Taconic were used in the study. On the day of study, animals were lightly anesthetized with isoflurane and administered either vehicle or test compound (0.03-1.0 mg/mL, 50 μL total volume over several breaths) via oropharyngeal aspiration. Animals were placed in lateral recumbency post dose and monitored for full recovery from anesthesia before being returned to their home cage. One hour later, animals were once again briefly anesthetized and challenged with either vehicle or alternaria extract (200 ug total extract delivered, 50 μL total volume) via oropharyngeal aspiration before being monitored for recovery from anesthesia and returned to their home cage. Forty-eight hours after alternaria administration, bronchoalveolar lavage fluid (BALF) was collected and eosinophils were counted in the BALF using the Advia 120 Hematology System (Siemens).
Activity in the model is evidenced by a decrease in the level of eosinophils present in the BALF of treated animals at forty-eight hours compared to the vehicle treated, alternaria challenged control animals. Data are expressed as percent inhibition of the vehicle treated, alternaria challenged BALF eosinophils response. To calculate percent inhibition, the number of BALF eosinophils for each condition is converted to percent of the average vehicle treated, alternaria challenged BALF eosinophils and subtracted from one-hundred percent.

JAK1, sequence (P23458 whole entry): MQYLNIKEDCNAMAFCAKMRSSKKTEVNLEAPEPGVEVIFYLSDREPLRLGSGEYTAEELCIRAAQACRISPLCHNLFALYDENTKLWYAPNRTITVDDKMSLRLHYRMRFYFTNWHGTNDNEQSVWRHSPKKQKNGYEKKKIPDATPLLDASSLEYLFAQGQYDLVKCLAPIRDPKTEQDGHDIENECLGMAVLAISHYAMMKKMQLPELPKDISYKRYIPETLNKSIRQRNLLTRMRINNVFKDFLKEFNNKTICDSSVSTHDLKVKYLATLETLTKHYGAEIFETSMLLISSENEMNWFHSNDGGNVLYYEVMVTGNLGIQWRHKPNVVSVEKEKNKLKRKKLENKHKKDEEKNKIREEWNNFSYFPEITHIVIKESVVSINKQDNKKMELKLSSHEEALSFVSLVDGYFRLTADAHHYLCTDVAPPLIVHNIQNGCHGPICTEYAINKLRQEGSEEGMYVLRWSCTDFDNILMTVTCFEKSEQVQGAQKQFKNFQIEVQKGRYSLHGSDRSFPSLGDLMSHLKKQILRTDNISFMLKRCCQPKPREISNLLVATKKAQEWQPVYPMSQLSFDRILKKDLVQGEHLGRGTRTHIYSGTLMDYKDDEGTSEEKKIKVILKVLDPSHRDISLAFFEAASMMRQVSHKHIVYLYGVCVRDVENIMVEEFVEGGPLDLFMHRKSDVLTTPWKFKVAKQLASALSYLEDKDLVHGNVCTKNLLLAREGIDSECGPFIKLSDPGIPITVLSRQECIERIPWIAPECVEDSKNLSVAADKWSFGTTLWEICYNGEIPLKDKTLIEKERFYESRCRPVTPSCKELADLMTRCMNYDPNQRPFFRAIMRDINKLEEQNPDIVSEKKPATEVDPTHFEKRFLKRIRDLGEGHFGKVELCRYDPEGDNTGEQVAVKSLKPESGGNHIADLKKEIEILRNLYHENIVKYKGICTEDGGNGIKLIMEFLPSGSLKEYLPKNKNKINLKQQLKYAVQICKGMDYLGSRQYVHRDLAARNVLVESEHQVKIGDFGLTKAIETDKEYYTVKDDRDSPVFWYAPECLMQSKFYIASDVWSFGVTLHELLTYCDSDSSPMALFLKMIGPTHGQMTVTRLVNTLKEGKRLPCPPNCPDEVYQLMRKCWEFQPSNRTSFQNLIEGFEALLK
JAK3, sequence (P52333 whole entry): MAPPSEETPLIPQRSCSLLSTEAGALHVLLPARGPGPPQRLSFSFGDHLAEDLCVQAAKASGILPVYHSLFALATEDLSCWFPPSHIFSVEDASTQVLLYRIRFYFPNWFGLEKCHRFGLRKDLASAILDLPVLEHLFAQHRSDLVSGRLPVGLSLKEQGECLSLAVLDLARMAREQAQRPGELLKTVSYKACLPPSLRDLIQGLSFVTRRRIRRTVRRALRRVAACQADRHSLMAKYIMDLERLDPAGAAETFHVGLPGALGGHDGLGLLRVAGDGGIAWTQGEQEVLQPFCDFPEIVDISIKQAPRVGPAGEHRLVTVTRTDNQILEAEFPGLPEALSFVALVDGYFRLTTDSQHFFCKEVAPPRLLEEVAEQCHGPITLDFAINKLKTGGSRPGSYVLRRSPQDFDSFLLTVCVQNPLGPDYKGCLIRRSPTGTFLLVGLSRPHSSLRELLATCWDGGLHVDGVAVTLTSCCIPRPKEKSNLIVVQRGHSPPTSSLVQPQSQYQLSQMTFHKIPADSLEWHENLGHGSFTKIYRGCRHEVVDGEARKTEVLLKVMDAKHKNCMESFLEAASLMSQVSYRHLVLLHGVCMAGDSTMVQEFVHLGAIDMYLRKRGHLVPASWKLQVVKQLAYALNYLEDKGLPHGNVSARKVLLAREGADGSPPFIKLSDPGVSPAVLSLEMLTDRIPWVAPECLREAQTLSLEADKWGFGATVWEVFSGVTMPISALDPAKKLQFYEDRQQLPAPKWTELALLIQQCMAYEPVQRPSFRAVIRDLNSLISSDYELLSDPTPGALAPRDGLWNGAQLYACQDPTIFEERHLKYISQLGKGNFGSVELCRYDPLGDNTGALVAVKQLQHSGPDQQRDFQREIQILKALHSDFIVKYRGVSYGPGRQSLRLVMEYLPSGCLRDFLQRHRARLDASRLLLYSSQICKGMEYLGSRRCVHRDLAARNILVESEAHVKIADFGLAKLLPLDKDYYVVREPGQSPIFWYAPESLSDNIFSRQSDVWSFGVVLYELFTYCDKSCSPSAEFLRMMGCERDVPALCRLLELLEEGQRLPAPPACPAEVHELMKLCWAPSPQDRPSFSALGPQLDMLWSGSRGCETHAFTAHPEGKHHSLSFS
JAK2, sequence (O60674 whole entry): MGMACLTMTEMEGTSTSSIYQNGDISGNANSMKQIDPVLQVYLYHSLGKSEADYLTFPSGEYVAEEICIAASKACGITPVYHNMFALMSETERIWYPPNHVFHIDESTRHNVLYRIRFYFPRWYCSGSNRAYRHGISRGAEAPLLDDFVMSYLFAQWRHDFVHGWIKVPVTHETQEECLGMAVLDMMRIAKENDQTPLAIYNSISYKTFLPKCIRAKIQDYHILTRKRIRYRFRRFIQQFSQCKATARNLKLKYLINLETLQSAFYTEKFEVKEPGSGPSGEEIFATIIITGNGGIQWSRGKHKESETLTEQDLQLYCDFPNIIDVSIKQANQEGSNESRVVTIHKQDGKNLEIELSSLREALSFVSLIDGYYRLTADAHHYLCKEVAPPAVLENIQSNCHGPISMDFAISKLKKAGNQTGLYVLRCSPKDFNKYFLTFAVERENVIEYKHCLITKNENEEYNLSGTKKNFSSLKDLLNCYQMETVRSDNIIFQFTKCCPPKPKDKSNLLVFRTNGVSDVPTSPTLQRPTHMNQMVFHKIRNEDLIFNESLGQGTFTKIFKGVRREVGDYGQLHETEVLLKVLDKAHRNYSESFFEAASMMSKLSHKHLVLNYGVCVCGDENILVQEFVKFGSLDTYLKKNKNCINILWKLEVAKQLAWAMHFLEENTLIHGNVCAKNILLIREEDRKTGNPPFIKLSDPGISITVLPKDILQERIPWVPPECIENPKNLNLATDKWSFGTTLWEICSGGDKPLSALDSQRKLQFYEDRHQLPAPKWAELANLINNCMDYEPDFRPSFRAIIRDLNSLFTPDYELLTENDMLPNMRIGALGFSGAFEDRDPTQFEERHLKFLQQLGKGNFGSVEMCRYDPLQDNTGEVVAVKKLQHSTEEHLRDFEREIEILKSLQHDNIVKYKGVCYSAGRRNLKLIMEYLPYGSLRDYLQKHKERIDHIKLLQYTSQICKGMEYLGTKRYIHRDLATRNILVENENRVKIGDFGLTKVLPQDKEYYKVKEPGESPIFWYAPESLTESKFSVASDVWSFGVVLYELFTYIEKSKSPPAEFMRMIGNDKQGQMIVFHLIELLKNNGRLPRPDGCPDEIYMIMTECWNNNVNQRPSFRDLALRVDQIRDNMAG
Tyk2, sequence (P29597 whole entry): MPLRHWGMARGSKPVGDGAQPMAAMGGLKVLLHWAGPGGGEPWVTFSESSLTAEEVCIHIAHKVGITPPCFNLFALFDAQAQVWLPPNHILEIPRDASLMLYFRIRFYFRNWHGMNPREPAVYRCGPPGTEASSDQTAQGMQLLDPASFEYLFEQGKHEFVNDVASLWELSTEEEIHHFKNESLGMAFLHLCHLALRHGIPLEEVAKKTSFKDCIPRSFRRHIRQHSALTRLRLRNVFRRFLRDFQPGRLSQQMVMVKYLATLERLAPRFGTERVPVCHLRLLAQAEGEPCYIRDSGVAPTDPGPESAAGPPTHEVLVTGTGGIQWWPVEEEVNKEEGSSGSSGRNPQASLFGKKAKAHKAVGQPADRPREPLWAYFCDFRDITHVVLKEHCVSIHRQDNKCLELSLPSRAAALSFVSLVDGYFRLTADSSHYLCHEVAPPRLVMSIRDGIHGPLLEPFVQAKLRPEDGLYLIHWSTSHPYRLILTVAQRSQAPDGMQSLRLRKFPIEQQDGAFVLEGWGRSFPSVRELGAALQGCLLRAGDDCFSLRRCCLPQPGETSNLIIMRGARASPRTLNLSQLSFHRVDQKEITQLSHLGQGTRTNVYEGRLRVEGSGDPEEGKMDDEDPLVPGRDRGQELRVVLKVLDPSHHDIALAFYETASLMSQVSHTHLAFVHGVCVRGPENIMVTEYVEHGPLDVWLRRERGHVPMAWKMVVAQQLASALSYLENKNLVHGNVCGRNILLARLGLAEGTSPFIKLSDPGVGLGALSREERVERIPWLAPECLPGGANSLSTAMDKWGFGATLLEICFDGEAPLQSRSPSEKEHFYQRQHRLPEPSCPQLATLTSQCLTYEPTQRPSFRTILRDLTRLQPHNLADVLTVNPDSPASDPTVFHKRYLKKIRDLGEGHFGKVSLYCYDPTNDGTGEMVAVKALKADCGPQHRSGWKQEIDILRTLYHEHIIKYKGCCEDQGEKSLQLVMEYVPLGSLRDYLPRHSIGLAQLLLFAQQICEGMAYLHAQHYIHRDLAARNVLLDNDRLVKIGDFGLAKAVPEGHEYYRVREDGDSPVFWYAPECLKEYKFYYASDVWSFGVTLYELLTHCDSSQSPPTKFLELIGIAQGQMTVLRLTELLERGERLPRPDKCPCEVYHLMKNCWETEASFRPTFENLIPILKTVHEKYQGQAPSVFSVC

Lung to Plasma ratio Assay 3 [7]	Compound	Ki [1] [nM]	Ki [2] [nM]	Ki [3] [nM]	Ki [4] [nM]	IC50 [5] [nM]	pSTAT6 inhibition Assay 4 [6]	Percent Inhibition of Alternaria-induced BALF Eosinophils [8]
	CCc1cc(O)c(F)cc1-c1ccc2c(-c3nc4c([nH]3)CNC(C(=O)N3CCN(C(C)C)CC3)C4)n[nH]c2c1 (centres unmarked) [Example 1-2]	0.05	0.03	0.16	0.08	7.8		
	CCc1cc(O)c(F)cc1-c1ccc2c(-c3nc4c([nH]3)CN(C)C(C(=O)N3CCN(C(C)C)CC3)C4)n[nH]c2c1 (centres unmarked) [Example 1-12]					5.9		
	CCc1cc(O)c(F)cc1-c1ccc2c(-c3nc4c([nH]3)CN(C)[C@H](C(=O)N3CCN(C)C[C@@H]3C)C4)n[nH]c2c1 [Example 2-15]					4	B (B represents between 40% and 60% inhibition)	
	CCc1cc(O)c(F)cc1-c1ccc2c(-c3nc4c([nH]3)CN(C)[C@H](C(=O)N3CCN(CCO)C[C@H]3C)C4)n[nH]c2c1 [Example 6, ((S)-2-(6-(2-ethyl-5-fluoro-4-hydroxyphenyl)-1H-indazol-3-yl)-5-methyl-4,5,6,7-tetrahydro-3H-imidazo[4,5-c]pyridin-6-yl)((R)-4-(2-hydroxyethyl)-2-methyl-piperazin-1-yl)methanone]	0.1				4.2	B (B represents between 40% and 60% inhibition)	73
	CCCN1Cc2[nH]c(-c3n[nH]c4cc(-c5cc(F)c(O)cc5CC)ccc34)nc2C[C@H]1C(=O)N1CCN(CCO)CC1 [Example 7, (S)-(2-(6-(2-ethyl-5-fluoro-4-hydroxyphenyl)-1H-indazol-3-yl)-5-propyl-4,5,6,7-tetrahydro-3H-imidazo[4,5-c]pyridin-6-yl)(4-(2-hydroxyethyl)piperazin-1-yl)methanone]	0.06				5.4	B (B represents between 40% and 60% inhibition)	91
	CCCN1Cc2[nH]c(-c3n[nH]c4cc(-c5cc(F)c(O)cc5CC)ccc34)nc2C[C@@H]1C(=O)N1CC[C@H](N(C)C)C1 [Example 9-21]	0.06	0.03		1	4	B (B represents between 40% and 60% inhibition)	
	CCc1cc(O)c(F)cc1-c1ccc2c(-c3nc4c([nH]3)CN(CC)C(C(=O)N(C)CCN(CC)CC)C4)n[nH]c2c1 (centres unmarked) [Example 12-8]						A (A represents between 60% and 80% inhibition)	
A (A denotes a ratio 100-200)	CCCN1Cc2[nH]c(-c3n[nH]c4cc(-c5cc(F)c(O)cc5CC)ccc34)nc2CC1C(=O)N(C)C1CCN(C)CC1 (centres unmarked) [Example 13-2]						A (A represents between 60% and 80% inhibition)	
A (A denotes a ratio 100-200)	CCCN1Cc2[nH]c(-c3n[nH]c4cc(-c5cc(F)c(O)cc5CC)ccc34)nc2CC1C(=O)N(C)C1CCN(C)CC1 (centres unmarked) [Example 13-5]						C (C represents between 25% and 40% inhibition)	
B (B denotes a ratio between 50 and 100)	CCCN1Cc2[nH]c(-c3n[nH]c4cc(-c5cc(F)c(O)cc5CC)ccc34)nc2CC1C(=O)N(C)C1CCN(C)CC1 (centres unmarked) [Example 13-6]						B (B represents between 40% and 60% inhibition)	

Compound	Lung to Plasma ratio Assay 3 [7]	Ki [1] [nM]	Ki [2] [nM]	Ki [3] [nM]	Ki [4] [nM]	IC50 [5] [nM]	pSTAT6 inhibition Assay 4 [6]	Percent Inhibition of Alternaria-induced BALF Eosinophils [8]
CCc1cc(O)c(F)cc1-c1ccc2c(-c3nc4c([nH]3)CN(C(C)C)[C@H](C(=O)N3CCCN(C)CC3)C4)n[nH]c2c1 [Example 5, (S)-(2-(6-(2-ethyl-5-fluoro-4-hydroxyphenyl)-1H-indazol-3-yl)-5-isopropyl-4,5,6,7-tetrahydro-3H-imidazo[4,5-c]pyridin-6-yl)(4-methyl-1,4-diazepan-1-yl)methanone]	B (B denotes a ratio between 50 and 100)	0.08		0.2		6.5	B (B represents between 40% and 60% inhibition)	
CCc1cc(O)c(F)cc1-c1ccc2c(-c3nc4c([nH]3)CN(CC)[C@@H](C(=O)N(C)CCN(CC)CC)C4)n[nH]c2c1 [Example 12-14, (R)—N-(2-(diethylamino)ethyl)-5-ethyl-2-(6-(2-ethyl-5-fluoro-4-hydroxyphenyl)-1H-indazol-3-yl)-N-methyl-4,5,6,7-tetrahydro-3H-imidazo[4,5-c]pyridine-6-carboxamide]	B (B denotes a ratio between 50 and 100)	0.06		0.2		3.3	B (B represents between 40% and 60% inhibition)	
